For two compounds, zone of inhibition and MIC results are on record in ChEMBL document CHEMBL3822364, “Synthesis, characterization and antimicrobial activity of novel Schiff base tethered boronate esters of 1,2-O-isopropylidene-α-d-xylofuranose” (2016).

In brackets after ≈: the same amount, converted by molar mass.

In assay [1] the test system is Streptococcus mutans. The assay is described as follows: Antibacterial activity against Streptococcus mutans MTCC 497 assessed as zone of inhibition at 100 ug/well measured after 24 hrs by agar well diffusion method. The settings on record: MTCC 497, 24 h, read-out: DIZ. The assay is classed as functional. (In general: In agar diffusion tests the substance spreads into inoculated agar from a disc or well.)

For assay [2], the system named is Klebsiella pneumoniae. As to the kind of experiment: Antibacterial activity against Klebsiella pneumoniae MTCC 3384 measured after 24 hrs by NCCL protocol based broth dilution method. Format: functional. The settings on record: MTCC 3384, 24 h. (In general: Broth dilution looks for growth in wells or tubes with falling amounts of substance.)
For assay [3], the system named is Salmonella typhi. As to the kind of experiment: Antibacterial activity against Salmonella typhi measured after 24 hrs by NCCL protocol based broth dilution method. The assay is classed as functional, Salmonella enterica subsp. enterica serovar Typhi. The settings on record: Salmonella enterica.
For assay [4], the system named is Aspergillus fumigatus. As to the kind of experiment: Antifungal activity against Aspergillus fumigatus MTCC 343 assessed as zone of inhibition at 100 ug/well measured after 48 hrs by agar well diffusion method. Format: functional. The settings on record: MTCC 343, 48 h, read-out: DIZ.
The subject of assay [5] is Staphylococcus aureus. As to the kind of experiment: Antibacterial activity against Staphylococcus aureus MTCC 3160 measured after 24 hrs by NCCL protocol based broth dilution method. Format: functional. The settings on record: MTCC 3160, 24 h.
Assay [6] relates to Salmonella paratyphi. The assay is described as follows: Antibacterial activity against Salmonella paratyphi measured after 24 hrs by NCCL protocol based broth dilution method. Format: functional, Salmonella enterica subsp. enterica serovar Paratyphi A. The settings on record: Salmonella enterica.
The subject of assay [7] is Micrococcus luteus. As to the kind of experiment: Antibacterial activity against Micrococcus luteus MTCC 106 assessed as zone of inhibition at 100 ug/well measured after 24 hrs by agar well diffusion method. Format: functional. The settings on record: MTCC 106, 24 h, read-out: DIZ.
The subject of assay [8] is Staphylococcus aureus. The assay is described as follows: Antibacterial activity against Staphylococcus aureus MTCC 3160 assessed as zone of inhibition at 100 ug/well measured after 24 hrs by agar well diffusion method. The settings on record: MTCC 3160, 24 h, read-out: DIZ. Format: functional.
Assay [9] deals with Salmonella typhi. The assay is described as follows: Antibacterial activity against Salmonella typhi assessed as zone of inhibition at 100 ug/well measured after 24 hrs by agar well diffusion method. The settings on record: Salmonella enterica, read-out: DIZ. The assay is classed as functional, Salmonella enterica subsp. enterica serovar Typhi.
The test system of assay [10] is Micrococcus luteus. As to the kind of experiment: Antibacterial activity against Micrococcus luteus MTCC 106 measured after 24 hrs by NCCL protocol based broth dilution method. The assay is classed as functional. The settings on record: MTCC 106, 24 h.
The subject of assay [11] is Candida albicans. The assay is described as follows: Antifungal activity against Candida albicans MTCC 3017 assessed as zone of inhibition at 100 ug/well measured after 48 hrs by agar well diffusion method. Format: functional. The settings on record: MTCC 3017, 48 h, read-out: DIZ.
For assay [12], the system named is Candida albicans. As to the kind of experiment: Antifungal activity against Candida albicans MTCC 3017 measured after 48 hrs by NCCL protocol based broth dilution method. Format: functional. The settings on record: MTCC 3017, 48 h.
In assay [13] the test system is Aspergillus fumigatus. The assay is described as follows: Antifungal activity against Aspergillus fumigatus MTCC 343 measured after 48 hrs by NCCL protocol based broth dilution method. The assay is classed as functional. The settings on record: MTCC 343, 48 h.
For assay [14], the system named is Streptococcus mutans. As to the kind of experiment: Antibacterial activity against Streptococcus mutans MTCC 497 measured after 24 hrs by NCCL protocol based broth dilution method. The assay is classed as functional. The settings on record: MTCC 497, 24 h.
Assay [15] relates to Klebsiella pneumoniae. As to the kind of experiment: Antibacterial activity against Klebsiella pneumoniae MTCC 3384 assessed as zone of inhibition at 100 ug/well measured after 24 hrs by agar well diffusion method. The settings on record: MTCC 3384, 24 h, read-out: DIZ. The assay is classed as functional.
Assay [16] relates to Salmonella paratyphi. The assay is described as follows: Antibacterial activity against Salmonella paratyphi assessed as zone of inhibition at 100 ug/well measured after 24 hrs by agar well diffusion method. The assay is classed as functional, Salmonella enterica subsp. enterica serovar Paratyphi A. The settings on record: Salmonella enterica, read-out: DIZ.

One may read the MIC as the lowest concentration found to suppress growth. The low end stands for inhibition by little substance, the high end for a need for much substance.

As for `COc1ccc(/C=N/c2cccc(B3OC[C@H]4O[C@@H]5OC(C)(C)O[C@@H]5[C@H]4O3)c2)c(O)c1`, the zone of inhibition at 100 µg/disc in the assay on Streptococcus mutans [1] was 22 mm; in the assay with Aspergillus fumigatus [4], 0 mm; with Micrococcus luteus [7] it was 21 mm; in the assay on Staphylococcus aureus [8], 15 mm; with Salmonella typhi [9] it was 21 mm; with Candida albicans [11], 13 mm. Besides, the results for the zone of inhibition at 100 µg/disc in the assay with Klebsiella pneumoniae [15] and in the assay with Salmonella paratyphi [16] were 19 mm and 0 mm, respectively. Further, the MIC with Klebsiella pneumoniae [2] came to 62.5 µg/mL (≈ 147 µM); in the assay on Salmonella typhi [3], 62.5 µg/mL (≈ 147 µM); in the assay with Staphylococcus aureus [5], 125 µg/mL (≈ 294 µM); against Salmonella paratyphi [6] it was 250 µg/mL (≈ 588 µM); with Micrococcus luteus [10], 62.5 µg/mL (≈ 147 µM); in the assay on Candida albicans [12], 250 µg/mL (≈ 588 µM). The MIC in the assay on Aspergillus fumigatus [13] came to 250 µg/mL (≈ 588 µM); against Streptococcus mutans [14] it was 62.5 µg/mL (≈ 147 µM).
With `COc1ccc(/N=C/c2cccc(B3OC[C@H]4O[C@@H]5OC(C)(C)O[C@@H]5[C@H]4O3)c2)cc1`, the zone of inhibition at 100 µg/disc stood at 17 mm in the assay with Streptococcus mutans [1]; 0 mm in the assay on Aspergillus fumigatus [4]; 12 mm in the assay on Micrococcus luteus [7]; 0 mm in the assay on Staphylococcus aureus [8]; 25 mm with Salmonella typhi [9]; 16 mm in the assay with Candida albicans [11]. Besides, the zone of inhibition at 100 µg/disc in the assay with Klebsiella pneumoniae [15] came to 18 mm; in the assay with Salmonella paratyphi [16], 21 mm. The MIC against Klebsiella pneumoniae [2] was found to be 62.5 µg/mL (≈ 153 µM); in the assay on Salmonella typhi [3], 31.2 µg/mL (≈ 76.4 µM); with Staphylococcus aureus [5], 500 µg/mL (≈ 1220 µM); with Salmonella paratyphi [6], 62.5 µg/mL (≈ 153 µM); with Micrococcus luteus [10], 250 µg/mL (≈ 611 µM); in the assay on Candida albicans [12] it was 125 µg/mL (≈ 305 µM). The minimal inhibitory concentration (MIC) was determined as 500 µg/mL (≈ 1220 µM) in the assay on Aspergillus fumigatus [13] and 125 µg/mL (≈ 305 µM) against Streptococcus mutans [14].
